From US7135292B2, “Analysis and modification of gene expression in marine invertebrate cells” (Harbor Branch Oceanographic Institution, Inc., priority 2002, dated 2006)

Tested on: TIB-155 murine lymphocytes
Experiment: Microarray analysis of gene expression, PHA-treated vs untreated murine lymphocytes
Type: cell-based
Details: significant regulation, opposite to sponge cells
Experimental: Murine Cells. Following the same experimental design as described for sponge cells, TIB-155 murine lymphocytes were cultured in the American Type Culture Collection-specified growth medium (RPMI 1640 with 0.05 mM 2-mercaptoethanol and 10% fetal bovine serum).

phytohemagglutinin [PHA]
COUP transcription factor regulation in murine cells: higher signal in the PHA-treated murine cells
